Measurements: US4289876A, “Antisecretory agents” (Bristol-Myers Company, priority 1980, dated 1981)
Each block holds one compound with its values, some of them ahead of it.

Columns and labels:
histamine H2-receptor = molecular target: T1, histamine H2-receptor (Cavia porcellus, UniProt P47747); assay: Histamine H2-receptor antagonism, isolated guinea pig right atria assay (displacement of histamine concentration-response curve for atrial rate)
T1 construct: The spontaneously beating right atrium was dissected free from other tissues; from tissue; host or cells: isolated spontaneously beating right atrium of male Hartley guinea pigs
T1 sequence (P47747 whole entry): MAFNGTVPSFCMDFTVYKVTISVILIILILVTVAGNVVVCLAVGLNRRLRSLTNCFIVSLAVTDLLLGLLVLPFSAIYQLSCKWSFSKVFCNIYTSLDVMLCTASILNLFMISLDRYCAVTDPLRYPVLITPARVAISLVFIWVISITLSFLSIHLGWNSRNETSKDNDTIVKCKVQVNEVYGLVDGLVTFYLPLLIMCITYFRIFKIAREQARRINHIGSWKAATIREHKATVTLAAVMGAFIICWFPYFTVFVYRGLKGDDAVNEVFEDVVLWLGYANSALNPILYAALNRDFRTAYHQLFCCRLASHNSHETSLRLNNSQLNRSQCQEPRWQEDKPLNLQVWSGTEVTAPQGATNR
Protocol: Subsequent investigations by Hughes and Coret, Proc. Soc. […] Black et al., Agents and Actions, 3, 133 (1973) and Brimblecombe et al., Fed. […] The present comparative studies were carried out using a modification of the procedure reported by Reinhardt et al., Agents and Actions, 4, 217 (1974).
Male Hartley strain guinea pigs (350-450 gm.) were sacrificed by a blow on the head. The heart was excised and placed in a Petri dish of oxygenated (95% O2, 5% CO2) modified Krebs solution (g./liter: NaCl 6.6, KCl 0.35, MgSO4.7 H2 O 0.295, KH2 PO4 0.162, CaCl2 0.238, NaHCO3 2.1 and dextrose 2.09). The spontaneously beating right atrium was dissected free from other tissues and a silk thread (4-0) attached to each end. The atrium was suspended in a 20 ml. muscle chamber containing oxygenated modified Krebs solution maintained at 32° C. Atrial contractions were recorded isometrically be means of a Grass FT 0.03 force displacement transducer and recordings of contractile force and rate were made with Beckman RP Dynograph.
A resting tension of 1 g. was applied to the atrium and it was allowed to equilibrate for 1 hour.
Concentration-response curve displacement factors were calculated as follows: [formula] […] [formula]

histamine H2-receptors = conditions: Black et al., Nature 1972; cited from earlier work
[1] = in vivo; cited from earlier work
peptic ulcer disease = conditions: clinical evaluation, Gray et al., Lancet 1977; cited from earlier work
H2-receptor = conditions: cited from earlier work
[2] = cited from earlier work
[3] = histamine ED50 after 30 minute incubation with test compound at 3 × 10^-5 M

Activity Ratio Relative to Cimetidine (histamine H2-receptor; Table 1, ratio of displacement factors, 3 × 10^-5 M): 2.09
Histamine ED50 With 95% Confidence Limits (histamine H2-receptor; [3]): 20.97 µg/mL
Structure (SMILES): C#CCNC(=C[N+](=O)[O-])NCCSCc1ncccc1Cl [BL-6075, 1-Nitro-2-(2-propynylamino)-2-{2-[(3-chloro-2-pyridyl)methylthio]ethylamino}ethylene]

potency/activity relative to cimetidine as a histamine H2-receptor antagonist (histamine H2-receptor; based on displacement factors): 8.19 times
Histamine ED50 With 95% Confidence Limits (histamine H2-receptor; [3]): 57.92 µg/mL
Structure (SMILES): C#CCNC(=NCCSCc1ncccc1Cl)NC#N [BL-6083, N-Cyano-N'-(2-propyn-1-yl)-N"-{2-[(3-chloro-2-pyridyl)methylthio]ethyl}guanidine]

Structure (SMILES): CNC(=S)NCCCCc1cnc[nH]1 [Burimamide]
mode of antagonism at histamine H2-receptors (histamine H2-receptors): competitive antagonist
oral absorption [1]: oral absorption is poor

Structure (SMILES): CN/C(=N/CCSCc1nc[nH]c1C)NC#N [Cimetidine]
Histamine ED50 With 95% Confidence Limits (histamine H2-receptor; [3]): 4.80 µg/mL
Concentration-Response Curve Displacement Factor (histamine H2-receptor; test compound 3 × 10^-5 M, rightward displacement of histamine curve): 25.26
efficacy in treatment of peptic ulcer disease (peptic ulcer disease): effective therapeutic agent in the treatment of peptic ulcer disease
potency/effectiveness as H2 antagonist vs. earlier compound (H2-receptor): as effective an H2 antagonist as metiamide

Structure (SMILES): NCCc1c[nH]cn1 [Histamine]
Histamine ED50 With 95% Confidence Limits (histamine H2-receptor; histamine control before BL-6075, N=3): 0.39 µg/mL
concentration of maximal response (atrial rate) (histamine H2-receptor; histamine, cumulative addition): 30 µM

Structure (SMILES): C/N=C(\S)NCCSCc1[nH]cnc1C [Metiamide]
oral activity in man [2]: orally active in man
potency/effectiveness as H2 antagonist vs. earlier compound (H2-receptor): more potent than burimamide
